Measured values from patent US12378249B2, “Isoquinoline compounds and uses thereof” (Genentech, Inc., priority 2018, dated 2025).
Counter-ions that a name gives are not always drawn.

Molecular target: HPK1 (Homo sapiens (Human), UniProt Q92918, S171E/T165E)
Experiment: HPK1-FL HTRF Enzymatic Assay (HTRF)
Type: biochemical
Details: HPK full length T165E S171E 0.125 nM, ATP 1 mM, Biotin-SLP76 100 nM, read-out: HPK1 Ki (nM), H = HTRF
Experimental: Exemplary compounds of Formula (I) were tested to assess compound inhibition of HPK-1. The Ki for each exemplary compound was determined
Example B1: HPK1-FL HTRF Enzymatic Assay (“HTRF”)
HPK-FL enzyme phosphorylates Biotin-SLP-76 substrate in the presence of ATP at 1 mM and varying concentrations of test compound. Product is detected by FRET using Eu-anti-pSLP76 Ab and SA-XL665. Also see www.cisbio.com/HTRF for additional HTRF technology information.
• Echo555 compound dispenser • Agilent Bravo • Perkin Elmer Envision Final Assay Conditions:
Materials: • Assay plate: White ProxiPlate 384 F (PerkinElmer cat #6008289) • Kinase: HPK full length double mutant • Substrate: Biotin-SLP76 • ATP: 100 mM ATP • BSG: 2% BSG • DMSO: DMSO (Sigma cat #34869-100ML) • Reaction Buffer: H2O/50 mM HEPES, pH 7.5/10 mM MgCl2/2 mM TCEP/0.01% Brij-35/0.01% BSG • Detection mix:Eu-anti-pSLP76/SA-XL665 (Cisbio, #610SAXAC) Assay Procedure Ki determination:
To a 384 well Proxiplate with 80 nL compound or DMSO spotted on was added 4 μl/well kinase mix. The mixture was preincubated for 30 minutes and then 4 μl/well substrate mix was added. The solution was incubated for 60 min and then 4 μl/well detection mix was added. The solution was incubated for another 60 min. The plates were then loaded onto a Perkin Elmer Envision and the TR-FRET signal was measured at 615 and 665 nm. A ratio of […] was used to calculate the % activity at each concentration of compound.

HPK1, sequence (Q92918 whole entry T165E/S171E): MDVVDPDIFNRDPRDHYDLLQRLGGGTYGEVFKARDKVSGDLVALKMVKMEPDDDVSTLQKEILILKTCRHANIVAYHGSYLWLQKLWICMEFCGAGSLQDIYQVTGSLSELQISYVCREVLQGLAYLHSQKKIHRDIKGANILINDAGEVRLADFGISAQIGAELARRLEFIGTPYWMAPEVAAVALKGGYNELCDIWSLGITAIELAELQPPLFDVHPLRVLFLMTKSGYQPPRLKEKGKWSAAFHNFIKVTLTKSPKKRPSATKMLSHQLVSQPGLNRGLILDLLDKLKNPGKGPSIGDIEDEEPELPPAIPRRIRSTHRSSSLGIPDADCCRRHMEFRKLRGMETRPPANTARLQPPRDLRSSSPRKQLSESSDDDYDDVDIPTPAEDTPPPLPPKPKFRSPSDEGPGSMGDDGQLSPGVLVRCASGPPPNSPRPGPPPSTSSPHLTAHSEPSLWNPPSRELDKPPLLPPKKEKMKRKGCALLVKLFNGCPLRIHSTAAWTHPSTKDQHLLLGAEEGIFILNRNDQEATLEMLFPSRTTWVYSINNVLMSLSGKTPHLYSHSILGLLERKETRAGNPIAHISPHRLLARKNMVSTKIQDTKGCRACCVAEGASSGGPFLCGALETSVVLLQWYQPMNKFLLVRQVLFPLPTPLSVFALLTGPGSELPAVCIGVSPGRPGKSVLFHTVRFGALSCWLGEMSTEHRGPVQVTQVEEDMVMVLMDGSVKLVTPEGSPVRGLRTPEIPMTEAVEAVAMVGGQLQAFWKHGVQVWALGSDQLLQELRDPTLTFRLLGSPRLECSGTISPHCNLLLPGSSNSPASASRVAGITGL

Ki	SMILES
0.15 nM	Cc1ncc(-c2cc3cc(Nc4cc5n(n4)CC(=O)N(C(C)C)CC5F)ncc3cc2F)c(C)c1N (racemic) [Compound 150, (+/-)-2-((6-(5-amino-4,6-dimethylpyridin-3-yl)-7-fluoroisoquinolin-3-yl)amino)-4-fluoro-6-isopropyl-5,6-dihydro-4H-pyrazolo[1,5-d][1,4]diazepin-7(8H)-one]
0.073 nM	Cc1c(-c2cc3cc(Nc4cc5n(n4)CC(=O)NCC5)ncc3cc2F)cnc2c1NC(C)CO2 (racemic) [Compound 182, (+/−)-2-((6-(2,8-dimethyl-2,3-dihydro-1H-pyrido[2,3-b][1,4]oxazin-7-yl)-7-fluoroisoquinolin-3-yl)amino)-5,6-dihydro-4H-pyrazolo[1,5-d][1,4]diazepin-7(8H)-one]
0.018 nM	Cc1c(-c2cc3cc(Nc4cc5n(n4)CC(=O)NCC5)ncc3cc2F)cnc2c1NCC(C)O2 (racemic) [Compound 184, (+/−)-2-((6-(3,8-dimethyl-2,3-dihydro-1H-pyrido[2,3-b][1,4]oxazin-7-yl)-7-fluoroisoquinolin-3-yl)amino)-5,6-dihydro-4H-pyrazolo[1,5-d][1,4]diazepin-7(8H)-one]
1.19 nM	Cc1c(-c2cc3cc(Nc4ccn([C@@H](C)C#N)n4)ncc3cc2F)cnc2c1NCCO2 (single isomer, unassigned) [Compound 109b, 2-(3-((7-fluoro-6-(8-methyl-2,3-dihydro-1H-pyrido[2,3-b][1,4]oxazin-7-yl)isoquinolin-3-yl)amino)-1H-pyrazol-1-yl)propanenitrile]
0.018 nM	Cc1c(-c2cc3cc(Nc4cc5n(n4)CC(=O)N(C(C)C)CC5O)ncc3cc2F)cnc2c1NCCO2 (single isomer, unassigned) [Compound 141b]
0.014 nM	Cc1c(-c2cc3cc(Nc4cc5n(n4)CC(=O)N([C@@H](C)C#N)CC5)ncc3cc2F)cnc2c1NCCO2 (single isomer, unassigned) [Compound 147a]
0.013 nM	Cc1c(-c2cc3cc(Nc4cc5n(n4)CC(=O)N(C(C)C#N)CC5)ncc3cc2F)cnc2c1NCCO2 (single isomer, unassigned) [Compound 147b]
0.013 nM	Cc1c(-c2cc3cc(Nc4cc5n(n4)CC(=O)N(C(C)CO)CC5)ncc3cc2F)cnc2c1NCCO2 (single isomer, unassigned) [Compound 148b]
0.014 nM	Cc1c(N)cncc1-c1cc2cc(Nc3cc4n(n3)CC(=O)N([C@@H](C)C#N)CC4)ncc2cc1F (single isomer, unassigned) [Compound 154a]
0.032 nM	Cc1c(N)cncc1-c1cc2cc(Nc3cc4n(n3)CC(=O)N(C(C)C#N)CC4)ncc2cc1F (single isomer, unassigned) [Compound 154b]
0.128 nM	Cc1c(N)cncc1-c1cc2cc(Nc3cc4n(n3)CC(=O)N(C(C)(C)C)C[C@H]4F)ncc2cc1F (single isomer, unassigned) [Compound 167a]
0.05 nM	Cc1c(-c2cc3cc(Nc4cc5n(n4)CC(=O)N(C)CC5)ncc3cc2F)cnc2c1C(O)CCO2 (single isomer, unassigned) [Compound 180a, 2-((7-Fluoro-6-(4-hydroxy-5-methyl-3,4-dihydro-2H-pyrano[2,3-b]pyridine-6-yl)isoquinolin-3-yl)amino)-6-methyl-5,6-dihydro-4H-pyrazolo[1,5-d][1,4]diazepin-7(8H)-one]
4.82 nM	Cc1c(-c2cc3cc(Nc4cc5n(n4)CC(=O)N(C)CC5)ncc3cc2F)cnc2c1C(O)CCO2 (single isomer, unassigned) [Compound 180b, 2-((7-Fluoro-6-(4-hydroxy-5-methyl-3,4-dihydro-2H-pyrano[2,3-b]pyridine-6-yl)isoquinolin-3-yl)amino)-6-methyl-5,6-dihydro-4H-pyrazolo[1,5-d][1,4]diazepin-7(8H)-one]
6.7 nM	CN[C@@H]1CCN(c2cc(C)c(-c3cc4cc(Nc5cc6n(n5)CC(=O)N(C)CC6)ncc4cc3F)cn2)C1 (single isomer, unassigned) [Compound 206a]
18 nM	Cc1c(-c2cc3cc(Nc4cc5n(n4)CC(=O)N(C)CC5)ncc3cc2F)cnc2c1[C@@](C)(O)CCO2 (single isomer, unassigned) [Compound 226a]

The next lines start with the compound.

SMILES	Ki
Cc1c(N)cncc1-c1cc2cc(Nc3cc4n(n3)Cc3nccn3CC4O)ncc2c(F)c1F (racemic) [Compound 170, (+/−)-8-((6-(5-amino-4-methylpyridin-3-yl)-7,8-difluoroisoquinolin-3-yl)amino)-5,6-dihydro-11H-imidazo[1,2-a]pyrazolo[1,5-d][1,4]diazepin-6-ol]	0.035 nM
Cc1c(-c2cc3cc(Nc4cc5n(n4)Cc4nccn4CC5)ncc3cc2F)cnc2c1NCC[S+]2[O-] (racemic) [Compound 189, (+/−)-7-(3-((5,6-dihydro-11H-imidazo[1,2-a]pyrazolo[1,5-d][1,4]diazepin-8-yl)amino)-7-fluoroisoquinolin-6-yl)-8-methyl-2,3-dihydro-1H-pyrido[2,3-b][1,4]thiazine 4-oxide]	0.48 nM
Cc1c(N)cncc1-c1cc2cc(Nc3cc4n(n3)C[S+]([O-])CC4)ncc2cc1F (racemic) [Compound 191, (+/-)-2-((6-(5-amino-4-methylpyridin-3-yl)-7-fluoroisoquinolin-3-yl)amino)-4,5-dihydro-7H-pyrazolo[1,5-c][1,3]thiazine 6-oxide]	2.6 nM
Cc1c(-c2cc3cc(Nc4cc5n(n4)CC(=O)NCC5)ncc3cc2F)cnc2c1NCCC2O (racemic) [Compound 201, (+/-)-2-((7-fluoro-6-(8-hydroxy-4-methyl-5,6,7,8-tetrahydro-1,5-naphthyridin-3-yl)isoquinolin-3-yl)amino)-5,6-dihydro-4H-pyrazolo[1,5-d][1,4]diazepin-7(8H)-one formate salt]	0.11 nM
CN1CCc2cc(Nc3cc4cc(-c5cncc6c5CCC6O)c(F)cc4cn3)nn2CC1=O (racemic) [Compound 214, (+/-)-2-((7-fluoro-6-(7-hydroxy-6,7-dihydro-5H-cyclopenta[c]pyridin-4-yl)isoquinolin-3-yl)amino)-6-methyl-5,6-dihydro-4H-pyrazolo[1,5-d][1,4]diazepin-7(8H)-one]	9 nM
Cc1cc(C2CCCCO2)ncc1-c1cc2cc(Nc3cc4n(n3)CC(=O)N(C)CC4)ncc2cc1F (racemic) [Compound 218, (+/-)-2-((7-fluoro-6-(4-methyl-6-(tetrahydro-2H-pyran-2-yl)pyridin-3-yl)isoquinolin-3-yl)amino)-6-methyl-5,6-dihydro-4H-pyrazolo[1,5-d][1,4]diazepin-7(8H)-one]	9 nM
Cc1c(-c2cc3cc(Nc4ccn([C@H](C)C#N)n4)ncc3cc2F)cnc2c1NCCO2 (single isomer, unassigned) [Compound 109a, 2-(3-((7-fluoro-6-(8-methyl-2,3-dihydro-1H-pyrido[2,3-b][1,4]oxazin-7-yl)isoquinolin-3-yl)amino)-1H-pyrazol-1-yl)propanenitrile]	2.17 nM
Cc1c(-c2cc3cc(Nc4cc5n(n4)CC(=O)N(C(C)C)C[C@H]5O)ncc3cc2F)cnc2c1NCCO2 (single isomer, unassigned) [Compound 141a]	0.033 nM
Cc1c(-c2cc3cc(Nc4cc5n(n4)CC(=O)N([C@@H](C)CO)CC5)ncc3cc2F)cnc2c1NCCO2 (single isomer, unassigned) [Compound 148a]	0.013 nM
Cc1c(N)cncc1-c1cc2cc(Nc3cc4n(n3)CC(=O)N([C@@H](C)CO)CC4)ncc2cc1F (single isomer, unassigned) [Compound 149a]	0.043 nM
Cc1c(N)cncc1-c1cc2cc(Nc3cc4n(n3)CC(=O)N(C(C)CO)CC4)ncc2cc1F (single isomer, unassigned) [Compound 149b]	0.019 nM
Cc1c(N)cncc1-c1cc2cc(Nc3cc4n(n3)CC(=O)N(C(C)C)C[C@H]4O)ncc2cc1F (single isomer, unassigned) [Compound 153a]	0.064 nM
Cc1c(N)cncc1-c1cc2cc(Nc3cc4n(n3)CC(=O)N(C(C)C)CC4O)ncc2cc1F (single isomer, unassigned) [Compound 153b]	0.075 nM
Cc1c(N)cncc1-c1cc2cc(Nc3cc4n(n3)CC(=O)N(C(C)(C)C)CC4F)ncc2cc1F (single isomer, unassigned) [Compound 167b]	0.013 nM
Cc1c(N)cncc1-c1cc2cc(Nc3cc4n(n3)CC(=O)N(C)C[C@@]4(C)O)ncc2cc1F (single isomer, unassigned) [Compound 185a]	0.169 nM
Cc1c(N)cncc1-c1cc2cc(Nc3cc4n(n3)CC(=O)N(C)CC4(C)O)ncc2cc1F (single isomer, unassigned) [Compound 185b]	0.037 nM
Cc1c(-c2cc3cc(Nc4cc5n(n4)CC(=O)N(C)CC54CC4)ncc3cc2F)cnc2c1NCC[C@H]2O (single isomer, unassigned) [Compound 205a]	0.013 nM
Cc1c(-c2cc3cc(Nc4cc5n(n4)CC(=O)N(C)CC54CC4)ncc3cc2F)cnc2c1NCC[C@@H]2O (single isomer, unassigned) [Compound 205b]	0.013 nM
CN[C@H]1CCN(c2cc(C)c(-c3cc4cc(Nc5cc6n(n5)CC(=O)N(C)CC6)ncc4cc3F)cn2)C1 (single isomer, unassigned) [Compound 206b]	6.2 nM
